Patent publication USRE42890E1, “Furazanobenzimidazoles” (Basilea Pharmaceutica AG, priority 2003, dated 2011)

Key:
[1] = tested on: adherent cells or suspension cells; assay: Hoechst 33342 nuclear staining (fraction of apoptotic nuclei); type: cell-based; set-up: key: 0 relating to no activity; 1 relating to weak activity comprising less than 70% of the cells; score 2 relating to strong activity comprising more than 70% of the cells
HeLa [2] = assay: PI staining for cell cycle distribution, HeLa; type: cell-based, human; set-up: key: 0: no effect; 1: weak effect; 2: strong effect; conditions: HeLa 10 μM, 24 h; for PI staining for cell cycle distribution, G2M: cell population arrested in G2M phase; for PI staining for cell cycle distribution, subG1: subG1 peak indicative for DNA fragmentation
Protocol: (§1) Cell lines are cultured in RPMI-1640 tissue culture medium containing either 5% or 10% fetal calf serum, 0.05 mM 2-mercaptoethanol, 2 mM glutamine and penicillin/streptomycin 50 μg/ml (complete medium) (Sigma, Buchs, Switzerland). General growth conditions are 37° C. and 7.5% CO2.
(§2) The following human cell lines (either EGFP transfected or not) are being used: HeLa (ATCC: CCL-2), KB (ATCC: CCL-17), MCF7 (ATCC: HTB-22), SK-BR-3 (ATCC: HTB-30), SK-Mel 1 (ATCC: HTB-67), SK-Mel 28 (ATCC: HTB-72), PC-3 (ATCC: CRL-1435), SW 480 (ATCC: CCL-228), NCl-H460 (ATCC: HTB-177), NCl-H1792 (ATCC: CRL-5895), HT1080 (ATCC: CCL-21), Jurkat (ATCC: TIB-152), Ramos (ATCC: CRL-1596), Raji (ATCC: CCL-86), H9 (ATCC: HTB-176), Hut78 (ATCC: TIB-161), K562 (ATCC: CCL 243), HL-60 (ATCC: CCL 240), U-87MG (ATCC: HTB-14), HepG2 (ATCC: HB-8065), U-2 OS (ATCC: HTB-96), Saos-2 (ATCC: HTB-85), U937 (ATCC: CRL 1593), Hs 578T (ATCC: HTB 126), HBL-100 (ATCC: HTB 124), Molt-4 (ATCC: CRL 1582).
(§3) 1-2*10^5 cells are seeded into 24 well tissue culture plates and incubated for 24 h prior to compound addition. Compounds are added for 24 h in a final concentration of 3 μM or 10 μM. Adherent cells are harvested by trypsinization. The cell suspensions are fixed by adding 2 parts ice cold ethanol 100% while vortexing. Then the samples are stored for >2 h at −20° C. Subsequently the cells are washed with PBS once and resuspended in 250 μl PBS containing 50 μg/ml PI (Calbiochem # 537059), then the samples are incubated at 37° C. for 30 minutes and subsequently analyzed on a FACSCalibur™ monitoring linear PI fluorescence activity on FL2. The readout allows the detection of a possible direct or indirect influence of the tested compounds on the cell cycle. The following events can occur: a) Generation of a subG1 peak indicative for DNA fragmentation, b) increase of the cell population arrested in G2M phase. Both events are scored by 1 for weak and 2 for strong occurrence. 0 indicates no occurrence at all.

HeLa [3] = assay: MTS proliferation assay, HeLa; type: cell-based, human; conditions: 72 h incubation, read-out: MTS proliferation assay IC 50 HeLa
Summary of the method: (§4)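 Proliferation: RPMI-1640/FCS complete medium, 37 °C, 7.5% CO2, cells plated 24 h pre-dose; compounds at 10, 3, 1, 0.3 μM final for 72 h; MTS, 492 nm.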

MRC5 = assay: MTS proliferation assay, MRC5; type: cell-based; conditions: MRC5, 72 h incubation; read-out: MTS proliferation assay IC 50 MRC5
Summary of the method: (§5)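 Viability after 72 h compound exposure at 10, 3, 1 and 0.3 μM final was scored by MTS absorbance (492 nm, 3 h reagent incubation), with cells kept in RPMI-1640 containing 5% or 10% fetal calf serum.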

HT1080 = assay: MTS proliferation assay, HT1080; type: cell-based, human; conditions: HT1080, 72 h incubation; read-out: MTS proliferation assay IC 50 HT1080
Summary of the method: as §4

Jurkat [4] = assay: MTS proliferation assay, Jurkat; type: cell-based, human; conditions: 72 h incubation, read-out: MTS proliferation assay IC 50 Jurkat
Summary of the method: as §4

Jily = assay: MTS proliferation assay, Jily; type: cell-based; conditions: 72 h incubation, read-out: MTS proliferation assay IC 50 Jily
Summary of the method: as §5

Jurkat [5] = assay: PI staining for cell cycle distribution, Jurkat; type: cell-based, human; set-up: key: 0: no effect; 1: weak effect; 2: strong effect; conditions: Jurkat 3 μM, 24 h; for PI staining for cell cycle distribution, G2M: cell population arrested in G2M phase; for PI staining for cell cycle distribution, subG1: subG1 peak indicative for DNA fragmentation
Protocol: as §1, §2, §3

Row | Structure (SMILES) | Hoechst 33342 nuclear staining score ([1]; H460, conc 0.01 μm) | Hoechst 33342 nuclear staining score ([1]; H460, conc 0.1 μm) | Hoechst 33342 nuclear staining score ([1]; H460, conc 1 μm) | Hoechst 33342 nuclear staining score ([1]; HeLa, conc 0.01 μm) | Hoechst 33342 nuclear staining score ([1]; HeLa, conc 0.1 μm) | Hoechst 33342 nuclear staining score ([1]; HeLa, conc 1 μm) | Hoechst 33342 nuclear staining score ([1]; Jily, conc 0.01 μm) | Hoechst 33342 nuclear staining score ([1]; Jily, conc 0.1 μm) | Hoechst 33342 nuclear staining score ([1]; Jily, conc 1 μm) | Hoechst 33342 nuclear staining score ([1]; Jurkat, conc 0.01 μm) | Hoechst 33342 nuclear staining score ([1]; Jurkat, conc 0.1 μm) | Hoechst 33342 nuclear staining score ([1]; Jurkat, conc 1 μm) | Hoechst 33342 nuclear staining score ([1]; MRC5, conc 0.01 μm) | Hoechst 33342 nuclear staining score ([1]; MRC5, conc 0.1 μm) | Hoechst 33342 nuclear staining score ([1]; MRC5, conc 1 μm) | Hoechst 33342 nuclear staining score ([1]; PBLs, conc 0.01 μm) | Hoechst 33342 nuclear staining score ([1]; PBLs, conc 0.1 μm) | Hoechst 33342 nuclear staining score ([1]; PBLs, conc 1 μm) | PI staining for cell cycle distribution, G2M (HeLa [2]) | PI staining for cell cycle distribution, subG1 (HeLa [2]) | also measured
1 | Nc1nonc1-c1nc2ccccc2n1CC(=O)c1ccc(Cl)cc1 [Example 16] | 0 | 2 (score 2 relating to strong activity comprising more than 70% of the cells) | 2 (score 2 relating to strong activity comprising more than 70% of the cells) | 0 | 2 (score 2 relating to strong activity comprising more than 70% of the cells) | 2 (score 2 relating to strong activity comprising more than 70% of the cells) | 0 | 2 (score 2 relating to strong activity comprising more than 70% of the cells) | 2 (score 2 relating to strong activity comprising more than 70% of the cells) | 0 | 2 (score 2 relating to strong activity comprising more than 70% of the cells) | 2 (score 2 relating to strong activity comprising more than 70% of the cells) | 0 | 2 (score 2 relating to strong activity comprising more than 70% of the cells) | 2 (score 2 relating to strong activity comprising more than 70% of the cells) | 0 | 0 | 0 | 2 | 0 | IC50 (HeLa [3]): 100 to 1000 nM; IC50 (MRC5): 10 to 100 nM; IC50 (HT1080): 10 to 100 nM; IC50 (Jurkat [4]): 100 to 1000 nM; IC50 (Jily): 10 to 100 nM; PI staining for cell cycle distribution, G2M (Jurkat [5]): 0; PI staining for cell cycle distribution, subG1 (Jurkat [5]): 0
2 | COc1ccc(C(=O)Cn2c(-c3nonc3N)nc3ccccc32)cc1 [Example 19] | 0 | 0 | 2 (score 2 relating to strong activity comprising more than 70% of the cells) | 0 | 1 (1 relating to weak activity comprising less than 70% of the cells) | 2 (score 2 relating to strong activity comprising more than 70% of the cells) | 0 | 2 (score 2 relating to strong activity comprising more than 70% of the cells) | 2 (score 2 relating to strong activity comprising more than 70% of the cells) | 0 | 2 (score 2 relating to strong activity comprising more than 70% of the cells) | 2 (score 2 relating to strong activity comprising more than 70% of the cells) | 0 | 0 | 2 (score 2 relating to strong activity comprising more than 70% of the cells) | 0 | 0 | 0 | 2 | 0 | IC50 (HeLa [3]): 100 to 1000 nM; IC50 (MRC5): 100 to 1000 nM; IC50 (Jurkat [4]): 10 to 100 nM; PI staining for cell cycle distribution, G2M (Jurkat [5]): 0; PI staining for cell cycle distribution, subG1 (Jurkat [5]): 0
3 | Nc1nonc1-c1nc2ccccc2n1CC(=O)c1ccc(Br)cc1 [Example 29] | 0 | 0 | 2 (score 2 relating to strong activity comprising more than 70% of the cells) | 0 | 1 (1 relating to weak activity comprising less than 70% of the cells) | 2 (score 2 relating to strong activity comprising more than 70% of the cells) | 0 | 2 (score 2 relating to strong activity comprising more than 70% of the cells) | 2 (score 2 relating to strong activity comprising more than 70% of the cells) | 0 | 2 (score 2 relating to strong activity comprising more than 70% of the cells) | 2 (score 2 relating to strong activity comprising more than 70% of the cells) | 0 | 2 (score 2 relating to strong activity comprising more than 70% of the cells) | 2 (score 2 relating to strong activity comprising more than 70% of the cells) | 0 | 0 | 0 | 2 | 0 | IC50 (HeLa [3]): 10 to 100 nM; IC50 (MRC5): 10 to 100 nM; IC50 (Jurkat [4]): 10 to 100 nM; PI staining for cell cycle distribution, G2M (Jurkat [5]): 0; PI staining for cell cycle distribution, subG1 (Jurkat [5]): 0
